Structures are written as SMILES.

For data set [1], the target named is T1, FPTase (Homo sapiens, UniProt P49354+P49356). Kind of data set: in vitro FTase Inhibition Assay, H-Ras used as substrate for farnesylation. Conditions: Table I, read-out: IC50 H-Ras*. Format: biochemical.
The target of data set [2] is T1, FPTase. As to the kind of experiment: in vitro FTase Inhibition Assay, K-Ras used as substrate for farnesylation. Format: biochemical. Conditions: Table I.

Usually melting point stands for the temperature of the solid-liquid transition. The IC50 is the concentration at which inhibition is half-maximal. As for `CC(=O)Nc1ccc(S(=O)(=O)C2(CCCC#Cc3ccc(Cl)cc3)SC(=O)NC2=O)cc1` (stereo not drawn) [Example 108, N-(4-{5-[5-(4-Chlorophenyl)pent-4-ynyl]-2,4-dioxothiazolidine-5-sulfonyl}phenyl)acetamide], the melting point was 232 °C (dec.). On FPTase [1], the IC50 was 130 to 180 nM. In addition, the half-inhibitory concentration (IC50) against FPTase [2] was at least 9000 nM.
For `O=C1NC(=O)C(CCCC#Cc2ccc(Cl)cc2)(S(=O)(=O)c2ccc(OCc3ccccc3)cc2)S1` (stereo not drawn) [Example 111, 5-(4-Benzyloxybenzenesulfonyl)-5-[5-(4-chlorophenyl)pent-4-ynyl]-thiazolidine-2,4-dione] the same measures were 181 to 184 °C, 110 to 150 nM and 300 to 550 nM.
For `CCCCOc1ccc(S(=O)(=O)C2(CCCC#Cc3ccc(Cl)cc3)SC(=O)NC2=O)cc1` (stereo not drawn) [Example 112, 5-(4-Butoxybenzenesulfonyl)-5-[5-(4-chlorophenyl)-pent-4-ynyl]-thiazolidine-2,4-dione] the same measures were 116 to 118 °C, 590 to 600 nM and 1400 to 1500 nM.
Regarding `O=C1NC(=O)C(CCCC#Cc2ccc(Cl)cc2)(S(=O)(=O)c2cccc3ccccc23)S1` (stereo not drawn) [Example 113, 5-[5-(4-Chlorophenyl)pent-4-ynyl]-5-(naphthalene-1-sulfonyl)-thiazolidine-2,4-dione], the melting point was in the range of 172 to 174 °C. In addition, at FPTase [1], the IC50 was 50 to 60 nM. Further, the IC50 against FPTase [2] was 750 to 800 nM.
Regarding `O=C1NC(=O)C(CCCC#Cc2cc(Cl)ccc2Cl)(S(=O)(=O)c2ccc(Oc3ccncc3)cc2)S1` (stereo not drawn) [Example 116, 5-[5-(2,5-Dichlorophenyl)pent-4-ynyl]-5-[4-(pyridin-4-yloxy)benzenesulfonyl]thiazolidine-2,4-dione], the melting point is 179 to 180 °C (dec.). The IC50 at FPTase [1] was in the range of 5 to 10 nM. The same compound came in with an IC50 on FPTase [2] of 17 to 40 nM.
For `COc1ccc(S(=O)(=O)C2(CCCC#Cc3ccc(Cl)cc3Cl)SC(=O)NC2=O)cc1` (stereo not drawn) [Example 117, 5-[5-(2,4-Dichlorophenyl)pent-4-ynyl]-5-(4-methoxybenzenesulfonyl)-thiazolidine-2,4-dione] the same measures were 129 to 133 °C, 20 to 30 nM and 510 to 1000 nM.
The corresponding values for `COc1ccc(S(=O)(=O)C2(CCCC#Cc3cccc([N+](=O)[O-])c3)SC(=O)NC2=O)cc1` (stereo not drawn) [Example 118, 5-(4-Methoxybenzenesulfonyl)-5-[5-(3-nitrophenyl)pent-4-ynyl]thiazolidine-2,4-dione] are 126 to 130 °C, 70 nM and 1900 nM.
The corresponding values for `O=C1NC(=O)C(CCCC#Cc2cccc([N+](=O)[O-])c2)(S(=O)(=O)c2ccc(Oc3ccccc3)cc2)S1` (stereo not drawn) [Example 119, 5-[5-(3-Nitrophenyl)pent-4-ynyl]-5-(4-phenoxybenzenesulfonyl)thiazolidine-2,4-dione] are 190 to 191 °C, 130 to 140 nM and 1300 to 1700 nM.
As for `O=C1NC(=O)C(CCCC#Cc2ccc([N+](=O)[O-])cc2)(S(=O)(=O)c2ccc(I)cc2)S1` (stereo not drawn) [Example 120, 5-(4-Iodobenzenesulfonyl)-5-[5-(4-nitrophenyl)pent-4-ynyl]thiazolidine-2,4-dione], the melting point was in the range of 205 to 207 °C. The IC50 on FPTase [1] is 18 to 32 nM. In addition, the concentration for half-maximal inhibition (IC50) against FPTase [2] fell in the range of 530 to 1000 nM.
The compound `COc1ccc(S(=O)(=O)C2(CCCC#Cc3ccc([N+](=O)[O-])cc3)SC(=O)NC2=O)cc1` (stereo not drawn) [Example 121, 5-(4-Methoxybenzenesulfonyl)-5-[5-(4-nitrophenyl)pent-4-ynyl]thiazolidine-2,4-dione] registered a melting point of 156 to 158 °C. In addition, the IC50 at FPTase [1] turned out to be 120 nM. Further, on FPTase [2], it took 1600 nM to reach half-maximal inhibition (IC50).
The corresponding values for `Cc1ccc([N+](=O)[O-])cc1C#CCCCC1(S(=O)(=O)c2ccc(Oc3ccccc3)cc2)SC(=O)NC1=O` (stereo not drawn) [Example 124] are 203 to 204 °C, 52 to 80 nM and 910 to 1300 nM.
For `Cc1ccc([N+](=O)[O-])cc1C#CCCCC1(S(=O)(=O)c2ccc(I)cc2)SC(=O)NC1=O` (stereo not drawn) [Example 125, 5-(4-Iodobenzenesulfonyl)-5-[5-(2-methyl-5-nitrophenyl)pent-4-ynyl]-thiazolidine-2,4-dione] the same measures were 188 to 190 °C, 30 nM and 400 nM.
Regarding `Cc1ccc([N+](=O)[O-])cc1C#CCCCC1(S(=O)(=O)c2cccc3ccccc23)SC(=O)NC1=O` (stereo not drawn) [Example 126, 5-[5-(2-Methyl-5-nitrophenyl)-pent-4-ynyl]-5-(naphthalene-1-sulfonyl)-thiazolidine-2,4-dione], the melting point was 168 to 172 °C. Moreover, the IC50 at FPTase [1] was 90 nM. On FPTase [2], this compound came in with an IC50 of 1700 nM.
The corresponding values for `Cc1ccc([N+](=O)[O-])cc1C#CCCCC1(S(=O)(=O)c2ccc3ccccc3c2)SC(=O)NC1=O` (stereo not drawn) [Example 127, 5-[5-(2-Methyl-5-nitrophenyl)pent-4-ynyl]-5-(naphthalene-2-sulfonyl)-thiazolidine-2,4-dione] are 197 to 200 °C, 120 to 140 nM and 1300 to 1500 nM.
The compound `Cc1cc([N+](=O)[O-])ccc1C#CCCCC1(S(=O)(=O)c2ccc(Oc3ccccc3)cc2)SC(=O)NC1=O` (stereo not drawn) [Example 129, 5-[5-(2-Methyl-4-nitrophenyl)pent-4-ynyl]-5-(4-phenoxybenzenesulfonyl)-thiazolidine-2,4-dione] came in with a melting point of 210 to 212 °C. In addition, the IC50 at FPTase [1] came out at 100 nM. This compound yielded an IC50 against FPTase [2] of 600 to 790 nM.
The corresponding values for `Cc1ccc(C)c(C#CCCCC2(S(=O)(=O)c3ccc(I)cc3)SC(=O)NC2=O)c1` (stereo not drawn) [Example 134, 5-[5-(2,5-Dimethylphenyl)pent-4-ynyl]-5-(4-iodobenzenesulfonyl)-thiazolidine-2,4-dione] are 129 to 130 °C, 14 to 850 nM and 430 to 680 nM.
For `COc1ccc(S(=O)(=O)C2(CCCC#Cc3cc(C)ccc3C)SC(=O)NC2=O)cc1` (stereo not drawn) [Example 135, 5-[5-(2,5-Dimethylphenyl)pent-4-ynyl]-5-(4-methoxybenzenesulfonyl)-thiazol idine-2 ,4-dione] the same measures were 149 to 150 °C, 20 to 32 nM and 1900 to 2100 nM.
Compound `COc1ccc(S(=O)(=O)C2(CCCC#Cc3ccc(C)cc3C)SC(=O)NC2=O)cc1` (stereo not drawn) [Example 136, 5-[5-(2,4-Dimethylphenyl)pent-4-ynyl]-5-(4-methoxybenzenesulfonyl)-thiazolidine-2,4-dione] yielded a melting point of 155 to 156 °C. On FPTase [1], the IC50 lay within 43 to 50 nM. This compound also had an IC50 against FPTase [2] of 1000 to 1900 nM.
The compound `Cc1ccc(C#CCCCC2(S(=O)(=O)c3ccc(I)cc3)SC(=O)NC2=O)c(C)c1` (stereo not drawn) [Example 137, 5-[5-(2,4-Dimethylphenyl)pent-4-ynyl]-5-(4-iodobenzenesulfonyl)-thiazolidine-2,4-dione] came in with a melting point of 153 to 154 °C. The IC50 on FPTase [1] lay in the range of 21 to 400 nM. In addition, at FPTase [2], the IC50 was in the range of 37 to 800 nM.
The corresponding values for `COc1ccc(S(=O)(=O)C2(CCCC#Cc3cc(Cl)ccc3C)SC(=O)NC2=O)cc1` (stereo not drawn) [Example 138, 5-[5-(5-Chloro-2-methylphenyl)pent-4-ynyl]-5-(4-methoxybenzene-sulfonyl)-thiazolidine-2,4-dione] are 121 to 122 °C, 23 to 32 nM and 300 to 420 nM.
For `Cc1ccc(Cl)cc1C#CCCCC1(S(=O)(=O)c2ccc(OC(F)(F)F)cc2)SC(=O)NC1=O` (stereo not drawn) [Example 139, 5-[5-(5-Chloro-2-methylphenyl)pent-4-ynyl]-5-(4-trifluoromethoxybenzene-sulfonyl)-thiazolidine-2,4-dione] the same measures were 196 °C (dec.), 140 to 170 nM and 600 to 5000 nM.
For `Cc1cc(Cl)ccc1C#CCCCC1(S(=O)(=O)c2ccc(I)cc2)SC(=O)NC1=O` (stereo not drawn) [Example 141, 5-(5-(4-Chloro-2-methylphenyl)-pent-4-ynyl]-5-(4-iodobenzene-sulfonyl)-thiazolidine-2,4-dione] the same measures were 93 to 99 °C, 21 to 32 nM and 300 to 340 nM.
For the compound `Cc1cc(Br)ccc1C#CCCCC1(S(=O)(=O)c2ccc(I)cc2)SC(=O)NC1=O` (stereo not drawn) [Example 144, 5-[5-(4-Bromo-2-methylphenyl)pent-4-ynyl]-5-(4-iodobenzenesulfonyl)-thiazolidine-2,4-dione], the melting point lay in the range of 146 to 147 °C. Moreover, the IC50 on FPTase [1] was in the range of 40 to 41 nM. On FPTase [2], this compound yielded an IC50 of 320 to 550 nM.
`Cc1ccc(NC(=O)OC(C)(C)C)cc1C#CCCCC1(S(=O)(=O)c2ccc(I)cc2)SC(=O)NC1=O` (stereo not drawn) [Example 148, (3-{5-[5-(4-Iodobenzenesulfonyl)-2,4-dioxothiazolidin-5-yl]-pent-1-ynyl}-4-methylphenyl)carbamic Acid tert-Butyl Ester] showed a melting point of 172 to 175 °C. In addition, the IC50 at FPTase [1] lay within 4.5 to 120 nM. For the same compound, the IC50 on FPTase [2] was 23 to 31 nM.
For `COc1ccc(S(=O)(=O)C2(CCCC#Cc3cc(NC(=O)OC(C)(C)C)ccc3C)SC(=O)NC2=O)cc1` (stereo not drawn) [Example 150, (3-{5-[5-(4-Methoxybenzenesulfonyl)-2,4-dioxothiazolidin-5-yl]pent-1-ynyl}-4-methylphenyl)carbamic Acid tert-Butyl Ester] the same measures were 116 to 118 °C, 7.4 to 32 nM and 16 to 68 nM.
For `COc1ccc(S(=O)(=O)C2(CCCC#Cc3cc(C(=O)NC(C)(C)C)ccc3C)SC(=O)NC2=O)cc1` (stereo not drawn) [Example 152, N-tert-Butyl-3-{5-[5-(4-methoxybenzenesulfonyl)-2,4-dioxothiazol-idin-5-yl]pent-1-ynyl}-4-methyl-benzamide] the same measures were 205 to 208 °C, 11 to 16 nM and 100 to 230 nM.

Values taken from US6605628B1, “Method of using 5-(arysulfonyl)-, 5-(arylsulfanyl)-and 5-(arylsulfanyl)thiazolidine-2,4-diones for inhibition of farnesyl-protein transferase” (Wyeth Holdings Corporation, priority 2001, dated 2003).
